ChEMBL document CHEMBL1141926, “Synthesis and anthelmintic activity of 7-substituted 3,4a-dimethyl-4a,5a,8a,8b-tetrahydro-6H-pyrrolo[3',4':4,5]furo[3,2-b]pyridine-6,8(7H)-diones” (Bioorg Med Chem Lett, 2005)

Tests used:
[1] = Partition coefficient (logP) (HPLC); format: physicochemical; conditions: octanol/water
Haemonchus contortus [2] = assay: In vivo percentage Haemonchus contortus egg reduction in sheep at dose 0.25 mg/kg body weight; Range 50-75%; format: functional
Haemonchus contortus [3] = assay: In vivo percentage Haemonchus contortus egg reduction in sheep at dose 0.10 mg/kg body weight; format: functional; conditions: dose 0.1 mg/kg
Haemonchus contortus [4] = assay: In vivo percentage Haemonchus contortus egg reduction in sheep at dose 0.05 mg/kg body weight; format: functional
Haemonchus contortus [5] = assay: In vivo percentage Haemonchus contortus egg reduction in sheep at dose 0.25 mg/kg body weight; format: functional
Haemonchus contortus [6] = assay: In vivo percentage Haemonchus contortus egg reduction in sheep at dose. 20 mg/kg body weight; format: functional, organism-based; design: dose 20 mg/kg; conditions: at 20 mg/kg
Haemonchus contortus [7] = assay: In vivo percentage Haemonchus contortus egg reduction in sheep at dose 20 mg/kg body weight; format: functional
Haemonchus contortus [8] = assay: In vivo percentage Haemonchus contortus egg reduction in sheep at dose 0.01 mg/kg body weight; format: functional

| Compound | logP [1] | Reduction (Haemonchus contortus [4]) | other results |
| --- | --- | --- | --- |
| CC1=CC2(C)OC3C(=O)N(Cc4ccccc4)C(=O)C3C2N=C1 (stereo not drawn) | 1.51 |  | Reduction (Haemonchus contortus [3]): >=95% |
| CC1=CC2(C)OC3C(=O)N(C)C(=O)C3C2N=C1 (stereo not drawn) | < 0 |  | Reduction (Haemonchus contortus [3]): >=95% |
| CC1=CC2(C)OC3C(=O)N([C@@H](C)c4ccccc4)C(=O)C3C2N=C1 (stereo partly drawn) | 1.7 | >=95% |  |
| CCN1C(=O)[C@@H]2[C@H](O[C@@]3(C)C=C(C)C=N[C@H]23)C1=O | 0.46 |  | Reduction (Haemonchus contortus [5]): >=95% |
| IVERMECTIN |  |  | Reduction (Haemonchus contortus [6]): > 95% |
| COC(=O)Nc1nc2cc(C(=O)c3ccccc3)ccc2[nH]1 [MEBENDAZOLE] |  |  | Reduction (Haemonchus contortus [7]): >=95% |
| CC1=CC2(C)OC3C(=O)N(C4CC4)C(=O)C3C2N=C1 (stereo not drawn) | 0.5 | >=95% |  |

Continued, in another order:

| logP [1] | Compound | Reduction (Haemonchus contortus [4]) | other results |
| --- | --- | --- | --- |
| 0.46 | CCN1C(=O)[C@H]2[C@@H](O[C@]3(C)C=C(C)C=N[C@@H]23)C1=O |  | Reduction (Haemonchus contortus [2]): 75% |
| 1.3 | CCCCN1C(=O)C2OC3(C)C=C(C)C=NC3C2C1=O (stereo not drawn) | >=95% |  |
| 0.46 | CCN1C(=O)C2OC3(C)C=C(C)C=NC3C2C1=O (stereo not drawn) |  | Reduction (Haemonchus contortus [8]): >=95% |
